# Test results: PubChem BioAssay (NCI)
#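 Test compounds were applied to cells in 96-well plates for 48 hours at 5 doses. TGI: total growth inhibition.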
# Tests used:
# Test in all cases: inhibition of tumour cell growth, NCI panel, 48 h
# OVCAR-5 ovarian = test system: OVCAR-5 ovarian
# SN12C renal = test system: SN12C renal
# PC-3 prostate = test system: PC-3 prostate
# SF-295 CNS = test system: SF-295 CNS
# KM12 colon = test system: KM12 colon
# SK-MEL-5 melanoma = test system: SK-MEL-5 melanoma
# SK-MEL-28 melanoma = test system: SK-MEL-28 melanoma
# MOLT-4 leukemia = test system: MOLT-4 leukemia
# HCT-15 colon = test system: HCT-15 colon
# UO-31 renal = test system: UO-31 renal
# UACC-257 melanoma = test system: UACC-257 melanoma
# MDA-MB-231 breast = test system: MDA-MB-231 breast
# OVCAR-8 ovarian = test system: OVCAR-8 ovarian
# ACHN renal = test system: ACHN renal
# K-562 leukemia = test system: K-562 leukemia
# SK-OV-3 ovarian = test system: SK-OV-3 ovarian
# SNB-75 CNS = test system: SNB-75 CNS
# SK-MEL-2 melanoma = test system: SK-MEL-2 melanoma
# NCI-H226 lung = test system: NCI-H226 lung
# CAKI-1 renal = test system: CAKI-1 renal
# LOX IMVI melanoma = test system: LOX IMVI melanoma
# SW-620 colon = test system: SW-620 colon
# NCI-H522 lung = test system: NCI-H522 lung
# U251 CNS = test system: U251 CNS
# MDA-MB-435 = test system: MDA-MB-435
# TK-10 renal = test system: TK-10 renal
# T-47D breast = test system: T-47D breast
# 786-0 renal = test system: 786-0 renal
# RXF 393 renal = test system: RXF 393 renal
# UACC-62 melanoma = test system: UACC-62 melanoma
# HT29 colon = test system: HT29 colon
# HOP-62 NSCLC = test system: HOP-62 NSCLC
# IGROV1 ovarian = test system: IGROV1 ovarian
# A549 NSCLC = test system: A549 NSCLC
# NCI/ADR-RES ovarian = test system: NCI/ADR-RES ovarian
# HCT-116 colon = test system: HCT-116 colon
# SNB-19 CNS = test system: SNB-19 CNS
# SR leukemia = test system: SR leukemia
# SF-539 CNS = test system: SF-539 CNS
# HL-60(TB) leukemia = test system: HL-60(TB) leukemia
# CCRF-CEM leukemia = test system: CCRF-CEM leukemia
# NCI-H460 lung = test system: NCI-H460 lung
# MALME-3M melanoma = test system: MALME-3M melanoma
# COLO 205 colon = test system: COLO 205 colon
# SF-268 CNS = test system: SF-268 CNS
# EKVX NSCLC = test system: EKVX NSCLC
# OVCAR-4 ovarian = test system: OVCAR-4 ovarian
# HCC-2998 colon = test system: HCC-2998 colon
# A498 renal = test system: A498 renal
# M14 melanoma = test system: M14 melanoma
# MDA-N = test system: MDA-N
# MCF7 breast = test system: MCF7 breast
# NCI-H23 lung = test system: NCI-H23 lung
# DU-145 prostate = test system: DU-145 prostate
# OVCAR-3 ovarian = test system: OVCAR-3 ovarian
# HOP-92 NSCLC = test system: HOP-92 NSCLC
# HS 578T breast = test system: HS 578T breast
# RPMI-8226 leukemia = test system: RPMI-8226 leukemia
structure (smiles),measurement,setting,value
COc1ccc(-c2c3c(n(C4OC(COC(C)=O)C(OC(C)=O)C(OC(C)=O)C4OC(C)=O)c(=S)c2C#N)CCCC3)cc1 (stereo unspecified),TGI,OVCAR-5 ovarian,> 100 µM
same,TGI,SN12C renal,> 100 µM
same,TGI,PC-3 prostate,66.7 µM
same,TGI,SF-295 CNS,> 100 µM
same,TGI,KM12 colon,> 100 µM
same,TGI,SK-MEL-5 melanoma,> 100 µM
same,TGI,SK-MEL-28 melanoma,> 100 µM
same,TGI,MOLT-4 leukemia,> 100 µM
same,TGI,HCT-15 colon,> 100 µM
same,TGI,UO-31 renal,> 100 µM
same,TGI,UACC-257 melanoma,> 100 µM
same,TGI,MDA-MB-231 breast,> 100 µM
same,TGI,OVCAR-8 ovarian,> 100 µM
same,TGI,ACHN renal,> 100 µM
same,TGI,K-562 leukemia,> 100 µM
same,TGI,SK-OV-3 ovarian,> 100 µM
same,TGI,SNB-75 CNS,94 µM
same,TGI,SK-MEL-2 melanoma,72.5 µM
same,TGI,NCI-H226 lung,> 100 µM
same,TGI,CAKI-1 renal,79.9 µM
same,TGI,LOX IMVI melanoma,> 100 µM
same,TGI,SW-620 colon,> 100 µM
same,TGI,NCI-H522 lung,> 100 µM
same,TGI,U251 CNS,> 100 µM
same,TGI,MDA-MB-435,> 100 µM
same,TGI,TK-10 renal,> 100 µM
same,TGI,T-47D breast,> 100 µM
same,TGI,786-0 renal,> 100 µM
same,TGI,RXF 393 renal,88.7 µM
same,TGI,UACC-62 melanoma,> 100 µM
same,TGI,HT29 colon,> 100 µM
same,TGI,HOP-62 NSCLC,> 100 µM
same,TGI,IGROV1 ovarian,> 100 µM
same,TGI,A549 NSCLC,> 100 µM
same,TGI,NCI/ADR-RES ovarian,> 100 µM
same,TGI,HCT-116 colon,> 100 µM
same,TGI,SNB-19 CNS,> 100 µM
same,TGI,SR leukemia,> 100 µM
same,TGI,SF-539 CNS,> 100 µM
same,TGI,HL-60(TB) leukemia,> 100 µM
same,TGI,CCRF-CEM leukemia,> 100 µM
same,TGI,NCI-H460 lung,> 100 µM
same,TGI,MALME-3M melanoma,> 100 µM
same,TGI,COLO 205 colon,> 100 µM
same,TGI,SF-268 CNS,> 100 µM
same,TGI,EKVX NSCLC,> 100 µM
same,TGI,OVCAR-4 ovarian,98.9 µM
same,TGI,HCC-2998 colon,> 100 µM
same,TGI,A498 renal,90 µM
same,TGI,M14 melanoma,> 100 µM
same,TGI,MDA-N,> 100 µM
same,TGI,MCF7 breast,> 100 µM
same,TGI,NCI-H23 lung,> 100 µM
same,TGI,DU-145 prostate,> 100 µM
same,TGI,OVCAR-3 ovarian,92.6 µM
C[C@@H](Br)[C@@H]1CC[C@H]2c3[nH]c4ccccc4c3CCN2C1,TGI,OVCAR-5 ovarian,> 100 µM
same,TGI,PC-3 prostate,75.4 µM
same,TGI,HOP-92 NSCLC,65.2 µM
same,TGI,SF-295 CNS,47.8 µM
same,TGI,KM12 colon,28.5 µM
same,TGI,SK-MEL-5 melanoma,29.4 µM
same,TGI,SK-MEL-28 melanoma,> 100 µM
same,TGI,HS 578T breast,33.9 µM
same,TGI,MOLT-4 leukemia,49.7 µM
same,TGI,HCT-15 colon,48.1 µM
same,TGI,UO-31 renal,> 100 µM
same,TGI,UACC-257 melanoma,> 100 µM
same,TGI,MDA-MB-231 breast,41.1 µM
same,TGI,OVCAR-8 ovarian,> 100 µM
same,TGI,ACHN renal,> 100 µM
same,TGI,K-562 leukemia,38.6 µM
same,TGI,SK-OV-3 ovarian,87.2 µM
same,TGI,SNB-75 CNS,48.3 µM
same,TGI,SK-MEL-2 melanoma,50.6 µM
same,TGI,NCI-H226 lung,> 100 µM
same,TGI,CAKI-1 renal,52.4 µM
same,TGI,LOX IMVI melanoma,32.9 µM
same,TGI,SW-620 colon,70.8 µM
same,TGI,NCI-H522 lung,29.5 µM
same,TGI,U251 CNS,55.8 µM
same,TGI,MDA-MB-435,45.6 µM
same,TGI,TK-10 renal,> 100 µM
same,TGI,T-47D breast,61.2 µM
same,TGI,786-0 renal,36.6 µM
same,TGI,RXF 393 renal,61.5 µM
same,TGI,UACC-62 melanoma,33.5 µM
same,TGI,HT29 colon,67.8 µM
same,TGI,HOP-62 NSCLC,40.5 µM
same,TGI,IGROV1 ovarian,77.8 µM
same,TGI,A549 NSCLC,> 100 µM
same,TGI,NCI/ADR-RES ovarian,47.3 µM
same,TGI,SNB-19 CNS,43.9 µM
same,TGI,SR leukemia,38.3 µM
same,TGI,HL-60(TB) leukemia,39.5 µM
same,TGI,CCRF-CEM leukemia,54.8 µM
same,TGI,NCI-H460 lung,70.1 µM
same,TGI,MALME-3M melanoma,40.3 µM
same,TGI,COLO 205 colon,26.3 µM
same,TGI,SF-268 CNS,> 100 µM
same,TGI,EKVX NSCLC,> 100 µM
same,TGI,RPMI-8226 leukemia,37.4 µM
same,TGI,OVCAR-4 ovarian,> 100 µM
same,TGI,HCC-2998 colon,31.3 µM
same,TGI,A498 renal,> 100 µM
same,TGI,M14 melanoma,44 µM
same,TGI,MDA-N,44 µM
same,TGI,MCF7 breast,77.6 µM
same,TGI,NCI-H23 lung,67.1 µM
same,TGI,DU-145 prostate,> 100 µM
same,TGI,OVCAR-3 ovarian,42.4 µM
O=[N+]([O-])c1cc(C2ON=C(c3ccccc3)N2C23CC4CC(CC(C4)C2)C3)ccc1Cl (stereo unspecified),TGI,OVCAR-5 ovarian,> 100 µM
same,TGI,SN12C renal,> 100 µM
same,TGI,PC-3 prostate,> 100 µM
same,TGI,HOP-92 NSCLC,> 100 µM
same,TGI,SF-295 CNS,> 100 µM
same,TGI,KM12 colon,> 100 µM
same,TGI,SK-MEL-5 melanoma,> 100 µM
same,TGI,SK-MEL-28 melanoma,> 100 µM
same,TGI,HS 578T breast,> 100 µM
same,TGI,MOLT-4 leukemia,> 100 µM
same,TGI,HCT-15 colon,> 100 µM
same,TGI,UO-31 renal,> 100 µM
same,TGI,UACC-257 melanoma,> 100 µM
same,TGI,MDA-MB-231 breast,> 100 µM
same,TGI,OVCAR-8 ovarian,> 100 µM
same,TGI,ACHN renal,> 100 µM
same,TGI,K-562 leukemia,> 100 µM
same,TGI,SK-OV-3 ovarian,> 100 µM
same,TGI,SNB-75 CNS,93.6 µM
same,TGI,SK-MEL-2 melanoma,> 100 µM
same,TGI,NCI-H226 lung,> 100 µM
same,TGI,CAKI-1 renal,> 100 µM
same,TGI,LOX IMVI melanoma,> 100 µM
same,TGI,NCI-H522 lung,> 100 µM
same,TGI,U251 CNS,> 100 µM
same,TGI,MDA-MB-435,> 100 µM
same,TGI,TK-10 renal,> 100 µM
same,TGI,T-47D breast,> 100 µM
same,TGI,786-0 renal,> 100 µM
same,TGI,RXF 393 renal,> 100 µM
same,TGI,HT29 colon,> 100 µM
same,TGI,HOP-62 NSCLC,> 100 µM
same,TGI,IGROV1 ovarian,> 100 µM
same,TGI,A549 NSCLC,> 100 µM
same,TGI,NCI/ADR-RES ovarian,> 100 µM
same,TGI,HCT-116 colon,> 100 µM
same,TGI,SNB-19 CNS,> 100 µM
same,TGI,SR leukemia,> 100 µM
same,TGI,SF-539 CNS,> 100 µM
same,TGI,HL-60(TB) leukemia,> 100 µM
same,TGI,CCRF-CEM leukemia,> 100 µM
same,TGI,NCI-H460 lung,> 100 µM
same,TGI,MALME-3M melanoma,> 100 µM
same,TGI,COLO 205 colon,> 100 µM
same,TGI,SF-268 CNS,> 100 µM
same,TGI,EKVX NSCLC,> 100 µM
same,TGI,RPMI-8226 leukemia,> 100 µM
same,TGI,OVCAR-4 ovarian,> 100 µM
same,TGI,HCC-2998 colon,> 100 µM
same,TGI,A498 renal,> 100 µM
same,TGI,M14 melanoma,> 100 µM
same,TGI,MDA-N,> 100 µM
same,TGI,MCF7 breast,> 100 µM
same,TGI,NCI-H23 lung,> 100 µM
same,TGI,DU-145 prostate,> 100 µM
same,TGI,OVCAR-3 ovarian,> 100 µM
